“And” between values parts separate entries of the source, which are not always exact repeats. Equal values may be shown once.
Legend:
Test in all cases: normalised viability (% of control), CellTiter-Blue; higher = more viable cells (about 100 = DMSO control)
MDA-MB-436 [1] = details: incubation time: 72 h
In short: (§1)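 The reported figure is normalised viability at a single listed concentration of the series. Breast cancer cell lines (20 µl suspension) went onto 384-well plates holding compound in 5 µl medium for 72 h. CellTiter-Blue (2.5 µl, 2 h, 37 °C) was read by fluorescence at 560/590 nm, and each plate was scaled to vehicle at 100 and a positive kill control at 0.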

Hs578T [2] = details: incubation time: 72 h
In short: as §1

MDA-MB-231 [3] = details: incubation time: 72 h
In short: as §1

HCC1937 [4] = details: incubation time: 72 h
In short: as §1

MDA-MB-468 [5] = details: incubation time: 72 h
In short: as §1

BT-549 [6] = details: incubation time: 72 h
In short: as §1

HCC1599 [7] = details: incubation time: 72 h
In short: as §1

DU-4475 [8] = details: incubation time: 72 h
In short: as §1

HDQ-P1 [9] = details: incubation time: 72 h
In short: as §1

BT-474 = details: incubation time: 72 h
In short: as §1

CAL-85-1 [10] = details: incubation time: 72 h
In short: as §1

CAL-51 [11] = details: incubation time: 72 h
In short: as §1

CAL-148 [12] = details: incubation time: 72 h
In short: as §1

MDA-MB-453 [13] = details: incubation time: 72 h
In short: as §1

MDA-MB-436 [14] = details: incubation time: 72 h; remark: listed apart in the source
In short: as §1

Hs578T [15] = details: incubation time: 72 h; remark: listed apart in the source
In short: as §1

SK-BR-3 = details: incubation time: 72 h
In short: as §1

HCC1937 [16] = details: incubation time: 72 h; remark: listed apart in the source
In short: as §1

MDA-MB-468 [17] = details: incubation time: 72 h; remark: listed apart in the source
In short: as §1

BT-549 [18] = details: incubation time: 72 h; remark: listed apart in the source
In short: as §1

HCC1599 [19] = details: incubation time: 72 h; remark: listed apart in the source
In short: as §1

CAL-120 = details: incubation time: 72 h
In short: as §1

MFM-223 = details: incubation time: 72 h
In short: as §1

HDQ-P1 [20] = details: incubation time: 72 h; remark: listed apart in the source
In short: as §1

CAL-85-1 [21] = details: incubation time: 72 h; remark: listed apart in the source
In short: as §1

CAL-51 [22] = details: incubation time: 72 h; remark: listed apart in the source
In short: as §1

MDA-MB-453 [23] = details: incubation time: 72 h; remark: listed apart in the source
Protocol: (§2)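 DSRT, CellTiter-Blue viability, 72 h incubation. Signal is normalised to DMSO and benzethonium chloride controls. Value is the normalised response at dose 7.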

DU-4475 [24] = details: incubation time: 72 h; remark: listed apart in the source
Protocol: as §2

HDQ-P1 [25] = details: incubation time: 72 h; remark: listed apart in the source
Protocol: as §2

CAL-85-1 [26] = details: incubation time: 72 h; remark: listed apart in the source
Protocol: as §2

CAL-51 [27] = details: incubation time: 72 h; remark: listed apart in the source
Protocol: as §2

CAL-148 [28] = details: incubation time: 72 h; remark: listed apart in the source
Protocol: as §2

MDA-MB-231 [29] = details: 10 nM; incubation time: 72 h
In short: as §1

HCC1143 = details: 10 nM; incubation time: 72 h
In short: as §1

SMILES: CO[C@H]1C[C@@H]2CC[C@@H](C)[C@@](O)(O2)C(=O)C(=O)N2CCCC[C@H]2C(=O)O[C@H]([C@H](C)C[C@@H]2CC[C@@H](OCCO)[C@H](OC)C2)CC(=O)[C@H](C)/C=C(\C)[C@@H](O)[C@@H](OC)C(=O)[C@H](C)C[C@H](C)/C=C/C=C/C=C/1C [Everolimus]
- normalised viability (MDA-MB-436 [1]; 1000 nM): 93.8% and 71.5%
- normalised viability (Hs578T [2]; 1000 nM): 53.2% and 41.5%
- normalised viability (MDA-MB-231 [3]; 1000 nM): 73.9% and 77.5%
- normalised viability (HCC1937 [4]; 1000 nM): 45.8% and 46.6%
- normalised viability (MDA-MB-468 [5]; 1000 nM): 56.8% and 64.2%
- normalised viability (BT-549 [6]; 1000 nM): 56.4% and 46.6%
- normalised viability (HCC1599 [7]; 1000 nM): 86.7% and 68.9%
- normalised viability (DU-4475 [8]; 10 nM): 64.3% and 57.3%
- normalised viability (HDQ-P1 [9]; 10 nM): 79.4% and 60.5%
- normalised viability (BT-474; 1000 nM): 65% and 59.1%
- normalised viability (CAL-85-1 [10]; 10 nM): 68.8% and 61.3%
- normalised viability (CAL-51 [11]; 10 nM): 39.8% and 39.5%
- normalised viability (CAL-148 [12]; 10 nM): 44.4% and 37.9%
- normalised viability (MDA-MB-453 [13]; 0.3 nM): 71.9% and 70%
- normalised viability (MDA-MB-436 [14]; 1 nM): 87.7% and 75.2%
- normalised viability (Hs578T [15]; 1 nM): 61% and 59.5%
- normalised viability (SK-BR-3; 1 nM): 80.9% and 64.3%
- normalised viability (HCC1937 [16]; 1 nM): 52.2% and 56.6%
- normalised viability (MDA-MB-468 [17]; 1 nM): 72% and 74.4%
- normalised viability (BT-549 [18]; 1 nM): 64.4% and 54.3%
- normalised viability (HCC1599 [19]; 1 nM): 107% and 111%
- normalised viability (CAL-120; 1 nM): 59.3% and 51.9%
- normalised viability (MFM-223; 1 nM): 55.5% and 51.7%
- normalised viability (HDQ-P1 [20]; 0.3 nM): 84.7% and 79.8%
- normalised viability (CAL-85-1 [21]; 0.3 nM): 73.8% and 72%
- normalised viability (CAL-51 [22]; 0.3 nM): 89.6% and 89.8%
- normalised viability (MDA-MB-453 [23]; 100 nM): 29.1% and 22.3%
- normalised viability (DU-4475 [24]; 100 nM): 49.9% and 56%
- normalised viability (HDQ-P1 [25]; 100 nM): 72.6% and 57.6%
- normalised viability (CAL-85-1 [26]; 100 nM): 61.3% and 49.3%
- normalised viability (CAL-51 [27]; 100 nM): 36.9% and 38%
- normalised viability (CAL-148 [28]; 100 nM): 42% and 40.4%

SMILES: CCCCCCCCc1ccc(CCC(N)(CO)CO)cc1 [Fingolimod]
- normalised viability (MDA-MB-436 [1]; 10000 nM): 4.17%
- normalised viability (Hs578T [2]; 10000 nM): 2.92%
- normalised viability (MDA-MB-231 [3]; 10000 nM): 0.68%
- normalised viability (HCC1937 [4]; 10000 nM): 2.06%
- normalised viability (MDA-MB-468 [5]; 10000 nM): 0.62%
- normalised viability (BT-549 [6]; 10000 nM): 8.23%
- normalised viability (HCC1599 [7]; 10000 nM): 128%
- normalised viability (DU-4475 [8]; 100 nM): 107%
- normalised viability (HDQ-P1 [9]; 100 nM): 111%
- normalised viability (BT-474; 10000 nM): 2.28%
- normalised viability (CAL-85-1 [10]; 100 nM): 96.6%
- normalised viability (CAL-51 [11]; 100 nM): 111%
- normalised viability (CAL-148 [12]; 100 nM): 87%
- normalised viability (MDA-MB-453 [13]; 3 nM): 114%
- normalised viability (MDA-MB-436 [14]; 10 nM): 100%
- normalised viability (Hs578T [15]; 10 nM): 98.1%
- normalised viability (SK-BR-3; 10 nM): 106%
- normalised viability (MDA-MB-231 [29]): 94.8%
- normalised viability (HCC1937 [16]; 10 nM): 116%
- normalised viability (MDA-MB-468 [17]; 10 nM): 106%
- normalised viability (BT-549 [18]; 10 nM): 94%
- normalised viability (HCC1599 [19]; 10 nM): 88.3%
- normalised viability (CAL-120; 10 nM): 91%
- normalised viability (MFM-223; 10 nM): 92.5%
- normalised viability (HCC1143): 80.8%
- normalised viability (HDQ-P1 [20]; 3 nM): 116%
- normalised viability (CAL-85-1 [21]; 3 nM): 92.2%
- normalised viability (CAL-51 [22]; 3 nM): 119%
- normalised viability (MDA-MB-453 [23]; 1000 nM): 103%
- normalised viability (DU-4475 [24]; 1000 nM): 109%
- normalised viability (HDQ-P1 [25]; 1000 nM): 110%
- normalised viability (CAL-85-1 [26]; 1000 nM): 93.4%
- normalised viability (CAL-51 [27]; 1000 nM): 112%
- normalised viability (CAL-148 [28]; 1000 nM): 96.3%

From the supplement of paper PMC4862054
